Reference: patent publication US20090233939A1, “TREATMENT OF AMM” (priority 2002, published 2009)

How the values were obtained:
[1] = target: Flt-4 (Homo sapiens, UniProt P35916); settings: cited from earlier work
[2] = target: Flt-1 (Homo sapiens, UniProt P17948); settings: cited from earlier work
[3] = system: patient having a protuberant spleen; assay: Example 2: patient with massive protuberant spleen treated with PTK787; type: in vivo, human; settings: 750 mg twice daily, after five days of therapy
Excerpt: After five days of therapy, the spleen had less than 10% of its original size.

[4] = system: other tyrosine kinase receptors, including c-Kit, bFGF and PDGF; settings: cited from earlier work
[5] = system: patient with splenomegaly

Chain of Flt-1 (P17948 27-1338, species assumed): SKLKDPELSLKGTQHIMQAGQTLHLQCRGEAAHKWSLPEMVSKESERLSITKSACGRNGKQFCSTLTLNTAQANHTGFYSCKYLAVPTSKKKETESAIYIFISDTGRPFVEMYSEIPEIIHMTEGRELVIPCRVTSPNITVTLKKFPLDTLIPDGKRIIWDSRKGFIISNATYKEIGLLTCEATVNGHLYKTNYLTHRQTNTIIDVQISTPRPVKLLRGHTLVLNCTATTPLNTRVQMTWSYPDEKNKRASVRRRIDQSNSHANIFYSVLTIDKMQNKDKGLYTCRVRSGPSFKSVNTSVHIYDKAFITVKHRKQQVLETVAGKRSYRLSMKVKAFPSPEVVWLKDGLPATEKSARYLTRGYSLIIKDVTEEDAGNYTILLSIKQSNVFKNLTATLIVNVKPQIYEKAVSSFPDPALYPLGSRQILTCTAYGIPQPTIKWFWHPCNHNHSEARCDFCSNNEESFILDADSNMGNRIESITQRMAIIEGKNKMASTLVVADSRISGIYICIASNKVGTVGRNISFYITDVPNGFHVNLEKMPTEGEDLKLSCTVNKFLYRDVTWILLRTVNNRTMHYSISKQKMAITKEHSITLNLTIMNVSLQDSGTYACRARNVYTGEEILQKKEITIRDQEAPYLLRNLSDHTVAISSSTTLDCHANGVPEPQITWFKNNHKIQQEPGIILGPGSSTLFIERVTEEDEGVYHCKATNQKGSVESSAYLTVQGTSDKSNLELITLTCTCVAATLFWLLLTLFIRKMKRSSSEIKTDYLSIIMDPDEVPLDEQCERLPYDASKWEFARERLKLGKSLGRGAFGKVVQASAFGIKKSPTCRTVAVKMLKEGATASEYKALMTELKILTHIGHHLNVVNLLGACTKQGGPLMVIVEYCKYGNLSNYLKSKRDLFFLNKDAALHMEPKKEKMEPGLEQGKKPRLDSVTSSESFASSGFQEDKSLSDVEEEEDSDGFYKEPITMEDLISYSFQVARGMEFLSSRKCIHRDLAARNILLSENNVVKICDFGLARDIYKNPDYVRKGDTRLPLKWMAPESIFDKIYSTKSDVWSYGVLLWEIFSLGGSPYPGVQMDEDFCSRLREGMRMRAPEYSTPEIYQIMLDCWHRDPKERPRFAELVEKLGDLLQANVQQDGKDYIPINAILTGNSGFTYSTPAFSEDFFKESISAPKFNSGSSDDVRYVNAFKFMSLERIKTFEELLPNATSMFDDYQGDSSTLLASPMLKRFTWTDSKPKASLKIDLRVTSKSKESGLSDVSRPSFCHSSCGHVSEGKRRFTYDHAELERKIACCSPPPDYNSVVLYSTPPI
Chain of Flt-4 (P35916 25-1363, species assumed): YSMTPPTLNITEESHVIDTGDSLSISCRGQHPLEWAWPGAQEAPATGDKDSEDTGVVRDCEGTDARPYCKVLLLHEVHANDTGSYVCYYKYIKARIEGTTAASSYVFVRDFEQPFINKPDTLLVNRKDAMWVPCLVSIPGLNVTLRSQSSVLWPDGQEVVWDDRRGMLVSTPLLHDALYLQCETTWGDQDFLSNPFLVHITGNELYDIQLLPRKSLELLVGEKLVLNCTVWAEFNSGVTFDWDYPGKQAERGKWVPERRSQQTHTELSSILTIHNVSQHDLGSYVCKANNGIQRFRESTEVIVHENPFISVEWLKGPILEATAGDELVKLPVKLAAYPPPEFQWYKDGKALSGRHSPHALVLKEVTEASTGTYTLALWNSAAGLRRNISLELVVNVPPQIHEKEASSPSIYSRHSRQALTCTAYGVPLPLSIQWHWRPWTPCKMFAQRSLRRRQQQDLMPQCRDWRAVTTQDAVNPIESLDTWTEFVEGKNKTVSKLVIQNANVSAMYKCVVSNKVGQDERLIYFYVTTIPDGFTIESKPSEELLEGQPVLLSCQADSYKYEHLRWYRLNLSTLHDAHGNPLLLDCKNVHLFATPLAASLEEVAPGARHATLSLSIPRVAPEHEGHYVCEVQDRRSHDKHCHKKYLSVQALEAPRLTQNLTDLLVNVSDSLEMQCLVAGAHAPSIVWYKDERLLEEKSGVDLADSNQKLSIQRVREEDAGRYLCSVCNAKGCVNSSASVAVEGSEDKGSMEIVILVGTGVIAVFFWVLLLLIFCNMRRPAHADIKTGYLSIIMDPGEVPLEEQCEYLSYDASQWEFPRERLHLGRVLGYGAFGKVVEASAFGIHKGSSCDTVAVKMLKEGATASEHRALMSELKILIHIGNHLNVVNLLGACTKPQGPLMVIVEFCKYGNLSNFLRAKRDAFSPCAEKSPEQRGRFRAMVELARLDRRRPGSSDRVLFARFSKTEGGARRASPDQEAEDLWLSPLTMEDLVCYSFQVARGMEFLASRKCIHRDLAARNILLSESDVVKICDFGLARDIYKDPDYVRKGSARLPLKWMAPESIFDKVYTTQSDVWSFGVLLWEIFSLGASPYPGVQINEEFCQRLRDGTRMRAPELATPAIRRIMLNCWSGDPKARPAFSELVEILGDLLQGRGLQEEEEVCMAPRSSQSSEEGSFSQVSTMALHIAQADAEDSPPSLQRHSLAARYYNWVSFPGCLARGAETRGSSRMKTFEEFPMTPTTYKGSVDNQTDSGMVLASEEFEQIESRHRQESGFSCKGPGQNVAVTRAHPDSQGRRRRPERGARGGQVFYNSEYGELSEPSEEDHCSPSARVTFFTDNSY

## PTK787
[1]
  inhibition of Flt-4: can also inhibit
[2]
  inhibition of Flt-1: can also inhibit
[3]
  spleen size: less than 10 % of its original size
[4]
  activity against other tyrosine kinase receptors: has activity
[5]; 750 mg twice daily, first 14 days of chemotherapy
  splenomegaly: decrease of splenomegaly
[5]; 750 mg twice daily, first 14 days, drop from 19,000
  white blood cells count: 14,000
[5]; during the interruption of therapy
  spleen during interruption of therapy: the spleen began to increase again
